Here are results for 22 compounds from patent US20160317661A1, “DERMAL AND/OR TRANSDERMAL PHARMACEUTICAL COMPOSITION CONTAINING A TERPENOID COMPOUND” (EPINAMICS GMBH, priority 2013, published 2016).

In brackets after ≈: the same amount, converted by molar mass. Structures can show the parent of a compound that is named as a salt.

Data set [1] in a line: Solubilities of active ingredients in carvacrol or carvacrol-containing (or thymol) formulations. Format: physicochemical. From the text: The mixing ratios are always given as volume proportions. Liqui-Patch® are formulations of ready-to-use mixtures of polymers and other additives for making transdermal systems and are obtainable from the company epinamics GmbH. In the formulation employed here, Liqui-Patch® contains the following components: mixture of 10 g triethyl citrate, 100 g water (demineralized or medical), 100 g DynamX®, 790 g ethanol.

Data set [2] can be described thus: Solubilities of clotrimazole and testosterone in different solvents. The note with it: for Solubilities in solvents with compounds employed according to the invention, compared with other solvents: Table II; for solubility: organic solvent or mixture.
The nature of data set [3]: Volatility of carvacrol with different admixtures (spots on glass plate at 35° C., recovery). Format: physicochemical. The settings on record: for V.C. 30 min. (volatile carvacrol) / V.C. 3 h (volatile carvacrol): carvacrol 20%, remainder ethanol, 35° C. On the procedure:
For testing whether carvacrol is suitable for transdermal systems or whether carvacrol is contained sufficiently long in transdermal systems, the volatility was investigated with different admixtures. The volatility is important, in order to keep the active ingredients sufficiently long in solution in the film.
For the measurement, two spots of 5 μl of each formulation, containing 1 mg carvacrol, were applied per point of time on a glass plate kept at 35° C. Two spots of a respective point of time (30 min. and 3 h after application of the spot) were wiped off with a cotton applicator. The amount of wiped-off carvacrol was determined. The difference to 100% intended recovery rate is the volatile carvacrol. The abbreviation V. refers to “volatile”, the abbreviation C. refers to carvacrol. The share of carvacrol is always 20%, the remainder relative to the sum of carvacrol and the additive is ethanol. Amounts are given in vol.-%.

Setting [4] is: solvent: Carvacrol/Liqui-Patch (1:1), volume proportions.
Where [5] appears, read: additive Ethylmethyl ketone 10%.
Where [6] appears, read: additive Ethylmethyl ketone 20%.
Setting [7] is: additive Isopropyl myristate 10%.
Setting [8] is: additive Isopropyl myristate 20%.
The mark [9] stands for this setting: additive Propylene carbonate 10%.
The mark [10] stands for this setting: additive Propylene carbonate 20%.
Where [11] appears, read: additive Propylene glycol 10%/menthol 5%.
Setting [12] is: additive Propylene glycol 20%/menthol 10%.

In data set [1] (solvent: Carvacrol), `O=c1[nH]cc(F)c(=O)[nH]1` [5-Fluorouracil] displayed a Dissolved amount of 25 mg/mL.

On to `Nc1cc(=O)[nH]c(=O)[nH]1` [6-Aminouracil], for which the Dissolved amount in data set [1] (solvent: Carvacrol) was less than 50 mg/mL.

With `Oc1cccc2cccnc12` [8-Hydroxyquinoline], the Dissolved amount in data set [1] (solvent: Carvacrol) was more than 100 mg/mL.

For `C=C(c1ccc(C(=O)O)cc1)c1cc2c(cc1C)C(C)(C)CCC2(C)C` [Bexarotene], the Dissolved amount in data set [1] (solvent: Carvacrol) came to 60 mg/mL; in data set [1] (setting [4]), 30 mg/mL.

`Clc1ccccc1C(c1ccccc1)(c1ccccc1)n1ccnc1` [Clotrimazole] registered a Dissolved amount in data set [1] (solvent: Carvacrol) of 410 mg/mL. Also, the “Solubilities in solvents with compounds employed according to the invention, compared with other solvents” value in data set [2] is reported as “considerably higher”.

Regarding `O=c1ccc2ccccc2o1` [Coumarin], the Dissolved amount in data set [1] (solvent: Carvacrol) was more than 200 mg/mL.

With `O=C(O)c1cc(=O)c2c(OCC(O)COc3cccc4oc(C(=O)O)cc(=O)c34)cccc2o1` [Cromoglicic acid-Na, Cromoglicic acid disodium salt], the Dissolved amount in data set [1] (solvent: Carvacrol) is 50 mg/mL.

In data set [1] (solvent: Carvacrol), `COc1cc(/C=C/C(=O)CC(=O)/C=C/c2ccc(O)c(OC)c2)ccc1O` [Curcumin] registered a Dissolved amount of 20 mg/mL.

`O=c1oc2c(O)c(O)cc3c(=O)oc4c(O)c(O)cc1c4c23` [Ellagic acid]: the Dissolved amount in data set [1] (solvent: Carvacrol) was determined as 60 mg/mL.

The compound `CC[C@H]1OC(=O)[C@H](C)[C@@H](O[C@H]2C[C@@](C)(OC)[C@@H](O)[C@H](C)O2)[C@H](C)[C@@H](O[C@@H]2O[C@H](C)C[C@H](N(C)C)[C@H]2O)[C@](C)(O)C[C@@H](C)C(=O)[C@H](C)[C@@H](O)[C@]1(C)O` [Erythromycin] showed a Dissolved amount in data set [1] (solvent: Carvacrol) of 110 mg/mL.

In the case of `Cl.Cl.Fc1ccc(C(c2ccc(F)cc2)N2CCN(C/C=C/c3ccccc3)CC2)cc1` [Flunarizine*2HCl], the Dissolved amount in data set [1] (solvent: Carvacrol) turned out to be 60 mg/mL.

On to `CN1C2CCCC1CC(NC(=O)c1nn(C)c3ccccc13)C2` (stereo not drawn) [Granisetron], for which the Dissolved amount in data set [1] (solvent: Carvacrol 62.5% Methanol 31.25% 2M NaOH/H2O 6.25%) stood at 71.25 mg/mL.

With `O=C(CCCN1CCC(O)(c2ccc(Cl)cc2)CC1)c1ccc(F)cc1` [Haloperidol], in data set [1] (solvent: Carvacrol), the Dissolved amount was determined as 100 mg/mL.

Consider `CC(=O)N1CCN(c2ccc(OCC3COC(Cn4ccnc4)(c4ccc(Cl)cc4Cl)O3)cc2)CC1` (stereo not drawn) [Ketoconazole], for which the Dissolved amount in data set [1] (solvent: Carvacrol) is 140 mg/mL.

As to `CCCCCCCCCCCC(=O)O` [Lauric acid], the figures for the Dissolved amount in data set [1] (solvent: Carvacrol) and in data set [1] (setting [4]) were 500 mg/mL and 250 mg/mL, respectively.

`CCn1cc(C(=O)O)c(=O)c2ccc(C)nc21` [Nalidixic Acid] returned a Dissolved amount in data set [1] (solvent: Carvacrol) of 108 mg/mL.

For the compound `O=C(O)c1ccccc1O` [Salicylic acid], the Dissolved amount in data set [1] (solvent: Carvacrol/Methanol (1:1), volume proportions) came out at 240 mg/mL.

Turning to `CN(C/C=C/C#CC(C)(C)C)Cc1cccc2ccccc12` [Terbinafine], in data set [1] (solvent: Thymol/Ethanol (1:1)), the Dissolved amount came to 406 mg/mL.

Compound `C[C@]12CC[C@H]3[C@@H](CCC4=CC(=O)CC[C@@]43C)[C@@H]1CC[C@@H]2O` [Testosterone] returned a Dissolved amount in data set [1] (solvent: Carvacrol) of 220 mg/mL. Besides, the “Solubilities in solvents with compounds employed according to the invention, compared with other solvents” value in data set [2] was “considerably higher”. For the same compound, the solubility was less than 250 mg/mL in data set [2] (solvent: 4-Methyl-Anisole); 335 mg/mL (≈ 1160 mM) in data set [2] (solvent: 20% 4MS/80% EtOH); 200 mg/mL (≈ 693 mM) in data set [2] (solvent: 20% (S)-(—)-Limonene/80% Ethanol); 500 mg/mL (≈ 1730 mM) in data set [2] (solvent: 20% Anisole/80% EtOH); 170 mg/mL (≈ 589 mM) in data set [2] (solvent: 20% Carvacrol/80% Acetone); 260 mg/mL (≈ 901 mM) in data set [2] (solvent: 20% Carvacrol/80% EtOH). In addition, the solubility turned out to be 250 mg/mL (≈ 867 mM) in data set [2] (solvent: 20% Carvacrol/80% LP (Liqui-Patch)); 200 mg/mL (≈ 693 mM) in data set [2] (solvent: 20% Gamma-Terpinene/80% ethalol); 300 mg/mL (≈ 1040 mM) in data set [2] (solvent: 20% Guaiacol/80% EtOH); 270 mg/mL (≈ 936 mM) in data set [2] (solvent: 20% Guaiacol/80% LP (Liqui-Patch)); 180 mg/mL (≈ 624 mM) in data set [2] (solvent: 20% Thymol/80% Acetone); 330 mg/mL (≈ 1140 mM) in data set [2] (solvent: 20% Thymol/80% EtOH). The solubility in data set [2] (solvent: 20% Thymol/80% LP (Liqui-Patch)) was 300 mg/mL (≈ 1040 mM); in data set [2] (solvent: 20% p-Cymene/80% Ethanol), 300 mg/mL (≈ 1040 mM); in data set [2] (solvent: (S)-(—)-Limonene), less than 100 mg/mL; in data set [2] (solvent: Acetone), 60 mg/mL (≈ 208 mM); in data set [2] (solvent: Anisole) it was less than 100 mg/mL; in data set [2] (solvent: Ethanol) it was 90 mg/mL (≈ 312 mM). Further, the solubility in data set [2] (solvent: Gamma-Terpinene) is less than 100 mg/mL; in data set [2] (solvent: Guaiacol), 270 mg/mL (≈ 936 mM); in data set [2] (solvent: LP (Liqui-Patch)), 190 mg/mL (≈ 659 mM); in data set [2] (solvent: Methyl salicylate (4MS)), less than 100 mg/mL; in data set [2] (solvent: carvacrol) it was 230 mg/mL (≈ 797 mM); in data set [2] (solvent: p-Cymene), less than 100 mg/mL.

`CC1=CC(=O)C(C(C)C)=CC1=O` [Thymoquinone] gave a Dissolved amount in data set [1] (solvent: Carvacrol) of more than 100 mg/mL.

Take `O=c1[nH]c(=O)c2[nH]c(=O)[nH]c2[nH]1` [Uric acid]: the Dissolved amount in data set [1] (solvent: Carvacrol) was less than 20 mg/mL.

For the compound `Cc1ccc(C(C)C)cc1O` [carvacrol], the “V.C. 30 min. (volatile carvacrol)” value is 33% in data set [3] (setting [5]); 45% in data set [3] (setting [6]); 28% in data set [3] (additive Glycerol 10%); 33% in data set [3] (additive Glycerol 20%); 26% in data set [3] (setting [7]); 24% in data set [3] (setting [8]). For the same compound, the “V.C. 30 min. (volatile carvacrol)” value in data set [3] (setting [9]) was 29%; in data set [3] (setting [10]), 11%; in data set [3] (setting [11]), 40%; in data set [3] (additive Propylene glycol 10%), 40%; in data set [3] (setting [12]), 0%; in data set [3] (additive Propylene glycol 20%) it was 1%. Also, the “V.C. 30 min. (volatile carvacrol)” value is 18% in data set [3] (additive Water 10%) and 0% in data set [3] (additive Water 20%). In addition, the “V.C. 3 h (volatile carvacrol)” value in data set [3] (setting [5]) is 100%; in data set [3] (setting [6]), 100%; in data set [3] (additive Glycerol 10%), 96%; in data set [3] (additive Glycerol 20%), 88%; in data set [3] (setting [7]) it was 46%; in data set [3] (setting [8]) it was 32%. Besides, the “V.C. 3 h (volatile carvacrol)” value in data set [3] (setting [9]) came out at 49%; in data set [3] (setting [10]), 24%; in data set [3] (setting [11]) it was 97%; in data set [3] (additive Propylene glycol 10%), 51%; in data set [3] (setting [12]) it was 46%; in data set [3] (additive Propylene glycol 20%), 33%. For the same compound, the “V.C. 3 h (volatile carvacrol)” value in data set [3] (additive Water 10%) and in data set [3] (additive Water 20%) was 94% throughout. In addition, in data set [3] (by propylene carbonate, propylene glycol, or isopropyl myristate as additive), the Volatility of carvacrol entry is recorded as “reduced”.
